From patent EP2604265A1, “P2x7 antagonists as frontline or adjunctive treatment against status epilepticus” (Royal College of Surgeons in Ireland (RCSI), priority 2011, dated 2013)

Experiments:
[1] = tested on: Adult male C57BL/6 mice; test: Intra-amygdala KA-induced SE in mice, EEG, drug i.c.v. immediately prior to KA; format: in vivo; conditions: i.c.v. co-injection immediately prior to intra-amygdala KA; vs vehicle (antibody vs control IgG); lorazepam at 40 min
Protocol: (§1) Adult male C57BL/6 mice (20-25 g) were obtained from Harlan UK (Blackthorn, UK). Mice were first anesthetized using isoflurane (3-5%) and maintained normothermic by means of a feedback-controlled heat blanket (Harvard Apparatus Ltd, Kent, UK). Mice were next placed in a stereotaxic frame and three partial craniectomies performed to affix cortical skull-mounted EEG electrodes (Bilaney Consultants Ltd, Sevenoaks, UK). EEG was recorded using a Grass Comet XL digital EEG (Medivent Ltd, Lucan, Ireland). A guide cannula was affixed (coordinates from Bregma: AP = 0.94; L = 2.85 mm) and the assembly fixed in place with dental cement. Anesthesia was then discontinued and freely moving mice were placed inside a clear perspex recording chamber. EEG recordings were commenced and after establishing baseline EEG for a few minutes, an injection cannula was lowered through the guide cannula for injection of kainic acid (KA) (Ocean Produce International, Nova Scotia, Canada) into the basolateral amygdala nucleus (0.3 µg in 0.2 µl phosphate-buffered saline). Non-seizure control mice underwent the same surgical procedure but received 0.2 µl intra-amygdala vehicle. Mice were killed at different time-points (1, 4, 8 or 24 h) later and perfused with saline to remove intravascular blood components. Brains were either flash-frozen whole in 2-methylbutane at 30°C or perfused with 4% PFA for histopathology, or dissected on ice to obtain whole hippocampus or microdissected to obtain the different hippocampal subfields (CA1, DG and CA3).
Digitized EEG recordings were analyzed off-line using manual assessment and automated software. […] The duration of high-frequency (>5 Hz) high-amplitude (>2× baseline) polyspike discharges of ≥5 s duration (HAHFDs) was counted by a reviewer blind to treatment. Further EEG analysis was performed by uploading EEG into Labchart7 software (ADInstruments) to calculate the power spectral density (total power, a measure of the input signal's power (amplitude) over frequency) EEG spectrogram (spectral power against frequency and time).
All the following drugs were purchased from Sigma-Aldrich Ireland (Arklow, Ireland) and delivered by intracerebroventricular (i.c.v.) microinjection in 2 µl volume unless otherwise specified: Adenosine 5'-triphosphate (ATP) at 100 µM, Uridine-5'-triphosphate (UTP) at 100 µM, Uridine-5'-diphosphate (UDP) at 100 µM, 2-chloro-N6-cyclopentyladenosine (CCPA) 300 nM, Pyridoxal-phosphate-6-azophenyl-2,4-disulfonate (PPADS) at 50 µM, α,β- methylene- adenosine-5-triphosphate (α,β-meATP) at 0.1 nmol, 3-O-(4-benzoyl)benzyl-ATP (Bz-ATP) at 300 µM, Brillant Blue G (BBG) at 30 nM.
Lorazepam (Ativan®, Wyeth, Taplow, U.K.) (6 mg/kg) was administered intraperitoneally (i.p.) at 40 or 60 min after KA.
Next, a model of focal-onset SE was used to evaluate the contributions of ATP-gated receptors in vivo. Mice received intra-amygdala microinjection of KA to induce SE (Fig. 2C). […] The electroencephalogram (EEG) was recorded by using cranial electrodes (lower part of Fig. 2C). Seizures were curtailed after 40 min by the injection of lorazepam to minimize morbidity and mortality.

[2] = tested on: Adult male C57BL/6 mice; test: Histopathology of ipsilateral hippocampal CA3 after SE (FJB and NeuN counts); format: in vivo; conditions: 24 h after SE, vs vehicle; for Counts of surviving CA3 neurons (NeuN) / FJB-positive cells within the CA3 subfield (neuronal death): drug given prior to SE
Protocol: as §1
Flash-frozen brains in 2-methylbutane were sectioned at -20°C on a Leica cryostat and 12 µm sections collected at the level of dorsal hippocampus (-1.8 mm and - 2.9 mm from Bregma according to a mouse stereotaxic atlas (Paxinos and Franklin, 2001). Neuronal death was assessed using Fluoro-Jade B (FJB) staining, as previously described (Engel et al., 2010; Murphy et al., 2010). Briefly, sections were air-dried and post-fixed in formalin followed by hydrating through graded alcohols. Sections were then rinsed in distilled water and transferred to 0.006% potassium permanganate solution for 15 min. Sections were rinsed again and transferred to a 0.001% FJB solution according to manufacturer's recommendations (Chemicon Europe Ltd, Chandlers Ford, UK). After staining, sections were mounted in DPX (Sigma-Aldrich). For NeuN immunohistochemistry, sections were fixed and permeabilized, blocked in goat serum and incubated overnight with anti-NeuN antibodies (Millipore Ireland B.V., Tullagreen, Ireland) followed by incubation with goat anti-rabbit IgG antibodies coupled to AlexaFluor 568 (BioSciences Limited, Dun Laoghaire, Ireland). Sections were examined using a Nikon 2000s epifluorescence microscope under Ex/Em wavelengths of 472/520 nm (green) and 540 to 580/600 to 660 nm (red) and images captured using a Hamamatsu Orca 285 camera. Cell counts were the average of two adjacent sections for the CA3 subfield under 40x lens magnification by an observer blinded to treatment.

[3] = tested on: microglia; test: Iba-1 immunostaining, activated microglia counts in CA3 after SE; format: in vivo, mice; conditions: CA3, 24 h after SE; vs vehicle
Protocol: as §1, with “Brains were either flash-frozen whole in 2-methylbutane at 30°C or perfused with 4% PFA for histopathology, or dissected on ice to obtain whole hippocampus or microdissected to obtain the different hippocampal subfields (CA1, DG and CA3).” left out

Structure (SMILES)	seizure time during SE (duration of HAHFDs) [1]	Counts of surviving CA3 neurons (NeuN) [2]	FJB-positive cells within the CA3 subfield (neuronal death) [2]	FJB-positive cells in CA3 ([2]; injected 15 min after KA)	NeuN-positive cells in CA3 ([2]; injected 15 min after KA)	Reactive microglia (Iba-1) [3]
Cl.Clc1cccc(-c2nnnn2Cc2cccnc2)c1Cl [A-438079, 3-[[5-(2,3-Dichlorophenyl)-1H-tetrazol-1-yl]methyl]pyridine hydrochloride]	significantly reduced seizure time	significantly higher	protect the hippocampus against SE-induced neuronal death	significantly fewer	significantly more	significantly reduced
CCOc1ccc(Nc2ccc(C(=C3C=CC(=[N+](CC)Cc4cccc(S(=O)(=O)[O-])c4)C=C3C)c3ccc(N(CC)Cc4cccc(S(=O)(=O)O)c4)cc3C)cc2)cc1 [BBG, Brilliant Blue G]	significantly reduced seizure time	significantly higher	significantly less damage	–	–	significantly reduced
